Laboratory results from patent publication US20210386738A1, “COMBINATION OF PRMT5 INHIBITORS AND BCL-2 INHIBITORS” (GLAXOSMITHKLINE INTELLECTUAL PROPERTY DEVELOPMENT LIMITED, priority 2018, published 2021).

Assays:
Type in all cases: cell-based
[1] = system: lymphoma cell line SU-DHL-4; test: Standard 6-day growth-death assay, SU-DHL-4; details: single agent or fixed 1:1 combination; for EC50 / IC50: Homo sapiens, 144 h; for EC50: average of n=2, read-out: dEC50; for IC50: average of n=2, read-out: gIC50; for Ymin-T0 / gIC100: average of n=2
Method: (§1) The majority cell lines were obtained from GSK BioCat group, American Type Culture Collection (ATCC), or the Deutsche Sammlung von Mikroorganismen and Zellbulturen (DSMZ). All cell lines were maintained in growth medium in T75 cm^2 flasks, incubated at 37° C. with 5% CO2 and split every 3 to 4 days. Growth media conditions and cell line information are detailed in Table 1. Cells were counted using the Vi-Cell Analyzer (Beckman Coulter ViCell) to obtain viable cell counts.
(§2) Optimal cell seeding density was determined for all cell lines by monitoring proliferation over a range of seeding densities in 384-well format and identifying the seeding density at which cells grew logarithmically throughout six days. 50 uL of cells per well were plated in 384-well plates at the optimal seeding density in preferred supplemented culture media. Three plates were prepared per cell line and incubated overnight at 37° C. in 5% CO2.
(§3) In these studies, lymphoma cell lines were treated with PRMT5 inhibitor, compound A and BCL-2 targeted inhibitor, ABT-199 single agent or in combination using a fixed 1:1 ratio of each inhibitor over a 20-point titration. For compound A single and fixed 1:1 ratio combination with ABT-199 cell proliferation assay, cells were treated in duplicate with a 20-point, two-fold dilution series of Compound A, ABT-199 (≥14 μM top dose) single or combo treatment, and ≤0.15% DMSO final concentration. Plates were incubated for six days at the conditions described above. Cell growth was measured using CellTiter-Glo (Promega) and luminescence signal was detected with a BioTek Synergy Neo microplate reader. A plate of untreated cells was read at the time of compound/biologic addition to determine the T0 value representing the starting number of cells. Data were fit with a four-parameter equation to generate a concentration response curve using Assay Client software.
(§4) Results were background corrected by subtraction of values from wells containing no cells, expressed as a percentage of the T0 value (value at time=0), and plotted against compound concentration. The T0 value was normalized to 100% and represents the number of cells present at the time of compound addition. The cellular response was determined for each compound using a 4- or 6-parameter curve fit of cell viability against concentration using Assay Client software. Growth IC50 (gIC50) values correspond to the concentration intersecting the mid-point of the growth window (between DMSO and T0 values). Growth IC100 (gIC100) values correspond to the concentration at which 100% growth inhibition is achieved, based on the growth window. The Ymin−T0 value, a measure of net population cell growth or death, is calculated by subtracting the T0 value (100%) from the Ymin value (%) that is determined from the fit of the concentration response curve. Death EC50 (dEC50) values correspond to the concentration at which 50% net cell death is observed.
(§5) Individual curves were quality checked for three criteria: outlier data points, cell growth (population doubling ≥1.5), and proper curve fitting. […] Individual curves were QC checked for outlier data points, cell growth (population doubling ≥1.5), and proper curve fitting. Obvious outlier data points were omitted only as needed to ensure proper curve fit.
(§6) For fixed ratio screening, combination activity was assessed by the fold change in gIC50 compared to the 2 single agent curves by dividing the compound ratio as necessary. Combinations showing >3-fold and >5-fold change from single agent are described as below: • Fold changes ≥5 are considered to represent strong synergy. • Fold changes between 3.0 and 4.9 are considered to represent weak synergy. • Fold changes <3 are considered to represent no synergy.

[2] = system: lymphoma cell line WSU-DLCL2; test: Standard 6-day growth-death assay, WSU-DLCL2; details: single agent or fixed 1:1 combination; for EC50 / IC50: Homo sapiens, WSUDLCL2, 144 h; for EC50: average of n=2, read-out: dEC50; for IC50: average of n=2, read-out: gIC50; for Ymin-T0 / gIC100: average of n=2
Method: as §1, §2, §3, §4, §5, §6

[3] = system: lymphoma cell line DOHH-2; test: Standard 6-day growth-death assay, DOHH-2; details: single agent or fixed 1:1 combination; for EC50 / IC50: Homo sapiens, 144 h; for EC50: average of n=2, read-out: dEC50; for IC50: average of n=2, read-out: gIC50; for Ymin-T0 / gIC100: average of n=2
Method: as §1, §2, §3, §4, §5, §6

[4] = system: lymphoma cell line U-2932; test: Standard 6-day growth-death assay, U-2932; details: single agent or fixed 1:1 combination; for EC50 / IC50: Homo sapiens, U2932, 144 h; for EC50: average of n=2, read-out: dEC50; for IC50: average of n=2, read-out: gIC50; for Ymin-T0 / gIC100: average of n=2
Method: as §1, §2, §3, §4, §5, §6

[5] = system: lymphoma cell line DB; test: Standard 6-day growth-death assay, DB; details: single agent or fixed 1:1 combination; for EC50 / IC50: 144 h; for EC50: average of n=2, read-out: dEC50; for IC50: average of n=2, read-out: gIC50; for Ymin-T0 / gIC100: average of n=2
Method: as §1, §2, §3, §4, §5, §6

[6] = system: lymphoma cell line WSU-FSCCL; test: Standard 6-day growth-death assay, WSU-FSCCL; details: single agent or fixed 1:1 combination; for EC50 / IC50: 144 h; for EC50: average of n=2, read-out: dEC50; for IC50: average of n=2, read-out: gIC50; for Ymin-T0 / gIC100: average of n=2
Method: as §1, §2, §3, §4, §5, §6

[7] = system: lymphoma cell line NU-DUL-1; test: Standard 6-day growth-death assay, NU-DUL-1; details: single agent or fixed 1:1 combination; for IC50: average of n=2, read-out: gIC50; for Ymin-T0 / gIC100: average of n=2
Method: as §1, §2, §3, §4, §5, §6

[8] = system: lymphoma cell line OCI-LY3; test: Standard 6-day growth-death assay, OCI-LY3; details: single agent or fixed 1:1 combination; for EC50 / IC50: Homo sapiens, 144 h; for EC50: average of n=2, read-out: dEC50; for IC50: average of n=2, read-out: gIC50; for Ymin-T0 / gIC100: average of n=2
Method: as §1, §2, §3, §4, §5, §6

[9] = system: Z-138; test: Standard 6-day growth-death assay, Z-138 as control for Compound A; details: single agent or fixed 1:1 combination; for EC50 / IC50: Homo sapiens, 144 h; for EC50: average of n=2, read-out: dEC50; for IC50: average of n=2, read-out: gIC50; for Ymin-T0 / gIC100: average of n=2
Method: as §1, §2, §3, §4, §5, §6

[10] = system: lymphoma cell line JV-M2*; test: Standard 6-day growth-death assay, JV-M2*; details: single agent or fixed 1:1 combination; for IC50: average of n=2, read-out: gIC50; for Ymin-T0 / gIC100: average of n=2
Method: as §1, §2, §3, §4, §5, §6

SMILES | EC50 [1] | IC50 [1] | Ymin-T0 [1] | gIC100 [1] | EC50 [2] | IC50 [2] | Ymin-T0 [2] | gIC100 [2] | EC50 [3] | IC50 [3] | Ymin-T0 [3] | gIC100 [3] | EC50 [4] | IC50 [4] | Ymin-T0 [4] | gIC100 [4] | EC50 [5] | IC50 [5] | Ymin-T0 [5] | gIC100 [5] | other results
CC1(C)CCC(CN2CCN(c3ccc(C(=O)NS(=O)(=O)c4ccc(NCC5CCOCC5)c([N+](=O)[O-])c4)c(Oc4cnc5[nH]ccc5c4)c3)CC2)=C(c2ccc(Cl)cc2)C1 [ABT-199, venetoclax, reference compound] | 13000 nM | 673 nM | 316% | 12.485 µM | > 14700 nM | 6920 nM | 3182% | > 14.7 µM | 1820 nM | 51 nM | −69% | 2897 nM | 3070 nM | 113 nM | −92% | 1366 nM | > 14700 nM | 2480 nM | 449% | > 14.7 µM | EC50 [6]: 14600 nM; IC50 [6]: 238 nM; Ymin-T0 [6]: −49%; gIC100 [6]: 10.53 µM; IC50 ([7]; Homo sapiens, 144 h): 3020 nM; Ymin-T0 [7]: −45%; gIC100 [7]: 4.832 µM; EC50 [8]: 7510 nM; IC50 [8]: 1470 nM; Ymin-T0 [8]: −76%; gIC100 [8]: 7.157 µM; EC50 [9]: 3120 nM; IC50 [9]: 14 nM; Ymin-T0 [9]: −78%; gIC100 [9]: 1119 nM; EC50 ([10]; Homo sapiens, JVM-2, 144 h, average of n=2, read-out: dEC50): 9080 nM; IC50 ([10]; Homo sapiens, JVM-2, 144 h): 27 nM; Ymin-T0 [10]: −63%; gIC100 [10]: 1607 nM
O=C(NC[C@H](O)CN1CCc2ccccc2C1)c1ccnc(NC2CCC2)c1 [Compound A] | > 14700 nM | 743 nM | 1083% | 14.663 µM | > 14700 nM | 1160 nM | 2474% | > 14.7 µM | 1940 nM | 41 nM | −100% | 1474 nM | 3070 nM | 281 nM | −88% | 1542 nM | > 14700 nM | 862 nM | 194% | > 14.7 µM | EC50 [6]: > 14700 nM; IC50 [6]: 388 nM; Ymin-T0 [6]: 224%; gIC100 [6]: 14.663 µM; EC50 ([7]; Homo sapiens, 144 h, average of n=2, read-out: dEC50): > 14700 nM; IC50 ([7]; Homo sapiens, 144 h): 3730 nM; Ymin-T0 [7]: −11%; gIC100 [7]: 12.659 µM; EC50 [8]: > 14700 nM; IC50 [8]: 1960 nM; Ymin-T0 [8]: 488%; gIC100 [8]: 14.663 µM; EC50 [9]: 794 nM; IC50 [9]: 38 nM; Ymin-T0 [9]: −93.1%; gIC100 [9]: 453 nM; IC50 ([10]; Homo sapiens, JVM-2, 144 h): 139 nM; Ymin-T0 [10]: −14%; gIC100 [10]: 2211 nM
